Assay results taken from the supplement of paper PMC10307832.

Experiments:
Test in all cases: relative viability (nuclei count vs DMSO), 5 days (fraction); higher = more cells survive
ALW-II-49-7 + OSI-027 = compound: Cc1ccc(C(=O)Nc2cccc(C(F)(F)F)c2)cc1Nc1cncc(C(N)=O)c1 [ALW-II-49-7] + COc1cccc2cc(-c3nc([C@H]4CC[C@H](C(=O)O)CC4)n4ncnc(N)c34)[nH]c12 [OSI-027] (partner 0.5 µM)
Method in brief: (§1)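 Values are medians from duplicate plates. Each reflects relative viability, defined as the nuclei count of treated wells over that of vehicle wells. Lung cancer cell lines in 1536-well plates were pin-tool dosed one day after seeding with one drug alone or with a fixed anchor-drug dose plus five library-drug doses (not always all listed) in √10 steps, then fixed, stained and imaged at 4× after 5 days.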

ALW-II-49-7 + Lapatinib = compound: Cc1ccc(C(=O)Nc2cccc(C(F)(F)F)c2)cc1Nc1cncc(C(N)=O)c1 [ALW-II-49-7] + CS(=O)(=O)CCNCc1ccc(-c2ccc3ncnc(Nc4ccc(OCc5cccc(F)c5)c(Cl)c4)c3c2)o1 [Lapatinib] (partner 2 µM)
Method in brief: as §1

Dasatinib + Olaparib = compound: Cc1nc(Nc2ncc(C(=O)Nc3c(C)cccc3Cl)s2)cc(N2CCN(CCO)CC2)n1 [Dasatinib] + O=C(c1cc(Cc2n[nH]c(=O)c3ccccc23)ccc1F)N1CCN(C(=O)C2CC2)CC1 [Olaparib] (partner 8 µM)
Method in brief: as §1

Dasatinib + Pictilisib = compound: Cc1nc(Nc2ncc(C(=O)Nc3c(C)cccc3Cl)s2)cc(N2CCN(CCO)CC2)n1 [Dasatinib] + CS(=O)(=O)N1CCN(Cc2cc3nc(-c4cccc5[nH]ncc45)nc(N4CCOCC4)c3s2)CC1 [Pictilisib] (partner 1 µM)
Method in brief: as §1

**Q.** What does the source list for UMC-11?
**A.** relative viability (ALW-II-49-7 + OSI-027; first compound 0.08 µM): 0.499; relative viability (ALW-II-49-7 + OSI-027; first compound 0.253 µM): 0.457; relative viability (ALW-II-49-7 + OSI-027; first compound 0.8 µM): 0.487; relative viability (ALW-II-49-7 + OSI-027; first compound 2.53 µM): 0.434; relative viability (ALW-II-49-7 + OSI-027; first compound 8 µM): 0.485; relative viability (ALW-II-49-7 + Lapatinib; first compound 0.08 µM): 0.943; relative viability (ALW-II-49-7 + Lapatinib; first compound 0.253 µM): 1.08; relative viability (ALW-II-49-7 + Lapatinib; first compound 0.8 µM): 0.998; relative viability (ALW-II-49-7 + Lapatinib; first compound 2.53 µM): 1.04; relative viability (ALW-II-49-7 + Lapatinib; first compound 8 µM): 0.806; relative viability (Dasatinib + Olaparib; first compound 0.005 µM): 0.542; relative viability (Dasatinib + Olaparib; first compound 0.01581 µM): 0.377; relative viability (Dasatinib + Olaparib; first compound 0.05 µM): 0.427; relative viability (Dasatinib + Olaparib; first compound 0.1581 µM): 0.272; relative viability (Dasatinib + Olaparib; first compound 0.5 µM): 0.247; relative viability (Dasatinib + Pictilisib; first compound 0.005 µM): 0.735; relative viability (Dasatinib + Pictilisib; first compound 0.01581 µM): 0.64; relative viability (Dasatinib + Pictilisib; first compound 0.05 µM): 0.49; relative viability (Dasatinib + Pictilisib; first compound 0.1581 µM): 0.288; relative viability (Dasatinib + Pictilisib; first compound 0.5 µM): 0.288
